Laboratory results: patent publication US11286263B2, “Macrocyclic fluorine substituted indole derivatives” (The Broad Institute, Inc., priority 2017, dated 2022)
Where a name gives a salt, the structure may show the parent alone. Read-outs that look alike come from different tables or passages of the source.

How the values were obtained:
SUDHL10 = assay: Antiproliferation assay SUDHL10 (Assay 7); assay type: cell-based; details: Homo sapiens, SU-DHL10; SUDHL10 cells, 72 h, CellTiter-Glo; median; read-out: IC50 Antiproli SUDHL10 [M] (median)
Method: (§1) Assessment of the Anti-Proliferative Effect of Compounds in Different Cell Lines
(§2) The impact of compounds on the proliferation of different cell lines was assessed using the CellTiter-Glo® Luminescent Cell Viability reagent from Promega (G7573).
(§3) In parallel, cells were plated in a reference (day 0) plate for time zero determination.
(§4) Rim wells were excluded. The cells were incubated for 72 h hours in a humidified incubator at 37° C. The day 0 plate was measured by adding 30 μL/well of CTG solution (CellTiter-Glo® Luminescent Cell Viability reagent, Promega G7573) to time zero wells in the reference plate followed by a 10 minutes incubation and luminescence reading at 0.1 ms. using the PHERAstar FS microplate reader (BMG Labtech).
(§5) After 72 h incubation, the treated plates were measured in the same way as the day 0 plate mentioned above.

MCL-1 = MCL-1 (Homo sapiens (Human), UniProt Q07820, K194A/K197A/R201A); assay: Protein-compound interaction assay (SPR assay, Assay 8); assay type: binding; details: immobilized MBP-MCL-1, 25° C., geometric mean
Chain of MCL-1 (Q07820 whole entry K194A/K197A/R201A, looked up): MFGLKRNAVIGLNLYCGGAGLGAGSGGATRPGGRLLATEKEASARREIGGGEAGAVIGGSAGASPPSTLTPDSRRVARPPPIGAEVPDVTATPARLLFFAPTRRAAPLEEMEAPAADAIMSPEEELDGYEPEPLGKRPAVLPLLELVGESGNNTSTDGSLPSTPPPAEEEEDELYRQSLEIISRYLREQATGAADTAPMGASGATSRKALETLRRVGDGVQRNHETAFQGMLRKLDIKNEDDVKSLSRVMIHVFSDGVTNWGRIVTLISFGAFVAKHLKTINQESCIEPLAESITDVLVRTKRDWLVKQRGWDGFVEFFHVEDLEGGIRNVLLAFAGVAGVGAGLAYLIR
From the text: Assay 8 Protein-Compound Interaction Assay (SPR Assay)
The ability of the compounds described in this invention to bind to MCL-1 may be determined using surface plasmon resonance (SPR). This allows for the quantification of binding in terms of the equilibrium dissociation constant (KD [M]), as well as association and dissociation rate constants (kon [1/M 1/s] and koff [1/s], respectively). The measurements may be performed using Biacore® T200 or Biacore® S200 instruments (GE Healthcare).
For SPR measurements, recombinant MCL-1 (amino acids 173-321, N-terminal fused to Maltose Binding Protein (MBP) (SEQ ID 1) purchased from Beryllium (Bedford, Mass., USA)) was immobilized using standard amine coupling (Johnsson B et al, Anal Biochem. 1991 Nov. 1; 198(2):268-77). Briefly, carboxymethylated dextran biosensor chips (Series S Sensor Chip CMS, GE Healthcare) were activated with 1-ethyl-3-(3-dimethylaminopropyl)-carbodiimide hydrochloride (EDC) and N-hydroxysuccinimide (NHS) according to the supplier's instructions. MBP-MCL-1 was diluted in 1×PBS-P+ (GE Healthcare) and injected on the activated chip surface. Subsequently, a solution of 1 M ethanolamine-HCl (GE Healthcare) was injected to block unreacted groups, resulting in approximately 400-2500 response units (RU) of immobilized protein. A reference surface was generated by treatment with NHS-EDC and ethanolamine-HCl. […] For SPR binding-measurements, serial dilutions of compound (eight dilution steps, typically ranging from 0.2 nM up to 1 μM) were injected over immobilized protein. […] Compounds were injected for 60 s followed by a dissociation time of up to 1000 s.
The double-referenced sensorgrams were fit to a simple reversible Langmuir 1:1 reaction mechanism as implemented in the Biacore® T200 and S200 evaluation software (T200 evaluation software version 2.0 and S200 evaluation software version 1.0, GE Healthcare).

HMC-1-8 = assay: Antiproliferation assay HMC-1-8 (Assay 7); assay type: cell-based
Method: as §1, §2, §3, §4, §5

MCL1 protein = MCL1 protein (Homo sapiens (Human), UniProt Q07820); assay: PIxEL: protein-protein interaction in permeabilized cells by ELISA (Assay 5); assay type: cell-based; details: permeabilized RKO cells, biotin-BIM BH3 peptide, median
Chain of MCL1 protein (Q07820 whole entry): as the sequence (Q07820 whole entry K194A/K197A/R201A, looked up) above, with A194K, A197K, A201R counted along it
Method: Assay 5 PI×EL: Protein-Protein Interaction in Permeabilized Cells by ELISA
Most MCL1 protein molecules are localized at the mitochondria outer membrane and sequester pro-apoptotic proteins through binding of their BCL2 homology domain 3 (BH3 domain). MEB buffer (150 mM mannitol, 10 mM HEPES pH 7.5, 50 mM KCl, 20 μM EDTA, 20 μM EGTA, 5 mM potassium succinate, 0.1% protease-free BSA (SIGMA) with low dose digitonin (0.002%) permeabilizes plasma membrane while leaves live mitochondria, where MCL1 maintains its native localization and conformation. Unlike biophysical assays (e.g. TR-FRET) that use truncated recombinant MCL1 protein, this assay uses full length endogenous MCL1 protein at mitochondria outer membrane. It measures the interaction between MCL1 protein and biotinylated BIM BH3 peptide. Compounds can compete with BIM BH3 peptide to bind to MCL1 protein. This serum free assay measures the affinity between MCL1 protein and compound in permeabilized cells, therefore it is not affected by serum binding and cell permeability, and can measure the intrinsic compound affinity.
On day 1, RKO colon cancer cell line cells were plated at 0.8 million cells/ml, 100 μl/well in 96-well flat bottom TC plates (Corning). MCL1 antibody (Santa Cruz sc-12756) were diluted at 200 fold (final concentration 1 μg/ml) in carbonate buffer (Thermo Fisher Scientific, pH 9.6), and 50 μl of diluted antibody was added to each well of high bind ELISA plates (SARSTEDT). Each plate was tapped to make sure liquid covering entire bottom of wells and incubate at 37° C. overnight.
On the second day, MCL1 antibody was washed from ELISA plate. 250 μl Odyssey® Blocking Buffer (PBS) (Li-Cor) was added to each well, incubated at room temperature for at least 1 hour, then washed once with 250 μl 1×PBST. Plates with RKO cells were gently washed once with 100 μl/well PBS, once with 100 μl/well MEB buffer without digitonin, then 100 μl of MEB buffer with 0.002% digitonin was gently added to each well. Compounds were added with HP Tecan compound dispenser in 3-fold dilution series, highest dose 30 μM, 10-dose per compound in quadruplicates. Biotin-BIM peptide (synthesized by 21st Century) was added with HP Tecan compound dispenser at 0.2 μM immediately after the addition of compounds. Plates were rocked for 1 hour at room temperature. Then MEB buffer was aspirated and 50 μl of CHAPS buffer (50 mM Tris-Cl, pH 7.4, 150 mM NaCl, 1% CHAPS, 1 mM EDTA, 1 mM EGTA, complete protease inhibitors (Roche), PhosSTOP (Roche)) was added to each well. Plates were rocked for 1 hour at 4° C., then 45 μl cell lysate from each well were transferred to ELISA plates coated with MCL1 antibody. Plates were incubated overnight in the cold room with rocking.
On the third day, ELISA plates were washed once with 250 μl 1×PBST. Streptavidin-poly-HRP (Thermo Fisher Scientific) was diluted to 20 ng/ml in Odyssey blocking buffer plus 0.05% Triton-100, and 100 μl was added to each well of the ELISA plate. Plates were incubated at room temperature for 1 hour with rocking, then washed with 100 μL 1×PBST for 3 times. Each SuperSignal ELISA Femto Maximum Sensitivity substrate was added to a 50-ml tube and mixed, then 100 μl of mixed substrate was added to each well. Plates were shaken for 1 minute then luminescence was measured by Envision plate reader […]. Signal of each well were normalized by no-compound control and no-cell control. IC50 was calculated using Graphic Pad PRISM software.

[1] = 72 h, HMC-1-8 cells, CellTiter-Glo, single determinations, read-out: IC50 Antiproli HMC-1-8
[2] = HMC-1-8 cells, 72 h, CellTiter-Glo; single determinations; read-out: IC50 Antiproli HMC-1-8

SMILES	IC50 (SUDHL10) [M]	Kd (MCL-1) [nM]	koff (MCL-1) [s⁻¹]	kon [1/M 1/s] (MCL-1)	IC50 (HMC-1-8; [1]) [nM]	IC50 (HMC-1-8; [2]) [nM]	IC50 (MCL1 protein) [nM]	kon (MCL-1) [M⁻¹ s⁻¹]	koff (MCL-1; read-out: koff) [s⁻¹]
Cc1c2c(nn1C)COCCCCn1c(C(=O)O)c(CCCOc3cccc4c3CCCC4)c3ccc(F)c-2c31 (racemic) [Example 18, (rac)-13-fluoro-11,12-dimethyl-1-(3-((5,6,7,8-tetrahydronaphthalen-1-yl)oxy)propyl)-4,5,6,7,9,11-hexahydropyrazolo[4′,3′:9,10][1]oxa[6]azacycloundecino[8,7,6-hi]indole-2-carboxylic acid]	1.5e-06	–	–	–	–	–	–	–	–
Cc1c2c(nn1C)COCCCCn1c(C(=O)O)c(CCCOc3cccc4c3CCC4)c3ccc(F)c-2c31 (racemic) [Example 19, (rac)-1-(3-((2,3-dihydro-1H-inden-4-yl)oxy)propyl)-13-fluoro-11,12-dimethyl-4,5,6,7,9,11-hexahydropyrazolo[4′,3′:9,10][1]oxa[6]azacycloundecino[8,7,6-hi]indole-2-carboxylic acid]	1.5e-06	–	–	–	–	–	–	–	–
Cc1nn(C)c2c1-c1c(F)ccc3c(CCCOc4cccc5cc(F)ccc45)c(C(=O)O)n(c13)CCCCOC2 (racemic) [Example 32, (rac)-13-fluoro-1-(3-((6-fluoronaphthalen-1-yl)oxy)propyl)-10,12-dimethyl-4,5,6,7,9,10-hexahydropyrazolo[4′,3′:9,10][1]oxa[6]azacycloundecino[8,7,6-hi]indole-2-carboxylic acid]	1.5e-06	–	–	–	–	–	–	–	–
CCc1c2c(nn1C)COCCCCn1c(C(=O)O)c(CCCOc3cccc4cc(F)ccc34)c3ccc(F)c-2c31 (single isomer, unassigned; enantiomer 1) [Example 22, 3-ethyl-4-fluoro-7-{3-[(6-fluoronaphthalen-1-yl)oxy]propyl}-2-methyl-2,10,11,12,13,15-hexahydropyrazolo[4′,3′:9,10][1,6]oxazacycloundecino[8,7,6-hi]indole-8-carboxylic acid-N-ethylethanamine salt (enantiomer 1)]	–	1.6	0.0072	4.4E6 1/M 1/s	2440	3530	1340	–	–
CCc1c2c(nn1C)COCCCCn1c(C(=O)O)c(CCCOc3cccc4cc(F)ccc34)c3ccc(F)c-2c31 (single isomer, unassigned; enantiomer 1) [Example 24, 3-ethyl-4-fluoro-7-{3-[(6-fluoronaphthalen-1-yl)oxy]propyl}-2-methyl-2,10,11,12,13,15-hexahydropyrazolo[4′,3′:9,10][1,6]oxazacycloundecino[8,7,6-hi]indole-8-carboxylic acid (enantiomer 1)]	–	2.9	–	–	–	2500	424	3.3e+06	0.0097
CCc1nn(C)c2c1-c1c(F)ccc3c(CCCOc4cccc5cc(F)ccc45)c(C(=O)O)n(c13)CCCCOC2 (single isomer, unassigned; enantiomer 1) [Example 39, 3-ethyl-4-fluoro-7-{3-[(6-fluoronaphthalen-1-yl)oxy]propyl}-1-methyl-1,10,11,12,13,15-hexahydropyrazolo[4′,3′:9,10][1,6]oxazacycloundecino[8,7,6-hi]indole-8-carboxylic acid-N-ethylethanamine salt (enantiomer 1)]	–	1.5	–	–	3170	–	2380	1.4e+07	0.021
